± gives the expanded uncertainty stated by the source.
Legend:
[1] = refractive index (Na D-line) (dimensionless); details: 101.33 kPa, Liquid, Standard Abbe refractometry
[2] = for viscosity / speed of sound / mass density: 101.33 kPa, Liquid; for viscosity: Capillary tube (Ostwald / Ubbelohde) method; for speed of sound: Pulse-echo method; for mass density: Vibrating tube method; for Normal melting temperature: Crystal, DTA

CCCC[N+]1(CC)CCCC1.CCOS(=O)(=O)[O-] [1-butyl-1-ethylpyrrolidinium ethyl sulfate]
Details	mass density, [2] [kg/m3]	refractive index, [1]	speed of sound, [2] [m/s]	viscosity, [2] [mPa·s]
328.15 K	1118.72 ± 6.8	1.4671 ± 0.0011	1602 ± 5.1	105.5 ± 3.3
333.15 K	1115.98 ± 6.8	1.46581 ± 0.0011	1589.6 ± 5.1	82.9 ± 2.4
338.15 K	1113.02 ± 6.7	1.46454 ± 0.0011	1577.2 ± 5.1	66.8 ± 1.8
343.15 K	1110.08 ± 6.7	1.46315 ± 0.0011	1564.9 ± 5.1	55.8 ± 1.5

Details	Normal melting temperature [°C]
[2]	53 ± 2

CCCC[N+]1(C)CCCC1.COS(=O)(=O)[O-] [1-butyl-1-methylpyrrolidinium methyl sulfate]
Details	mass density, [2] [kg/m3]	refractive index, [1]	speed of sound, [2] [m/s]	viscosity, [2] [mPa·s]
298.15 K	1166.69 ± 7.4	1.47308 ± 0.0011	1741.6 ± 5.1	467.5 ± 26
303.15 K	1163.58 ± 7.4	1.47184 ± 0.0011	1727.3 ± 5.1	334.9 ± 17
308.15 K	1160.46 ± 7.3	1.47054 ± 0.0011	1713.6 ± 5.1	245.6 ± 11
313.15 K	1157.4 ± 7.3	1.46924 ± 0.0011	1700.3 ± 5.1	184.1 ± 7.3
318.15 K	1154.4 ± 7.2	1.46792 ± 0.0011	1687.4 ± 5.1	139.2 ± 4.9
323.15 K	1151.42 ± 7.2	1.46661 ± 0.0011	1674.7 ± 5.1	107.8 ± 3.4
328.15 K	1148.42 ± 7.2	1.46536 ± 0.0011	1662.2 ± 5.1	86.1 ± 2.5
333.15 K	1145.42 ± 7.1	1.46406 ± 0.0011	1649.8 ± 5.1	69.2 ± 1.9
338.15 K	1142.44 ± 7.1	1.46274 ± 0.0011	1637.6 ± 5.1	56.4 ± 1.5
343.15 K	1139.47 ± 7	1.46143 ± 0.0011	1625.5 ± 5.1	46.6 ± 1.3

CCOS(=O)(=O)[O-].CC[N+]1(C)CCCC1 [1-ethyl-1-methylpyrrolidinium ethyl sulfate]
Details	mass density, [2] [kg/m3]	refractive index, [1]	speed of sound, [2] [m/s]	viscosity, [2] [mPa·s]
308.15 K	1189.67 ± 7.7	1.47021 ± 0.0011	1750.2 ± 5.1	172 ± 6.5
313.15 K	1186.53 ± 7.7	1.46891 ± 0.0011	1737.5 ± 5.1	134.9 ± 4.7
318.15 K	1183.41 ± 7.6	1.4676 ± 0.0011	1725.2 ± 5.1	107.5 ± 3.4
323.15 K	1180.3 ± 7.6	1.46632 ± 0.0011	1713 ± 5.1	86.8 ± 2.5
328.15 K	1177.22 ± 7.5	1.46506 ± 0.0011	1701 ± 5.1	71.2 ± 1.9
333.15 K	1174.15 ± 7.5	1.46378 ± 0.0011	1689.2 ± 5.1	59.1 ± 1.6
338.15 K	1171.11 ± 7.5	1.46246 ± 0.0011	1677.3 ± 5.1	49.5 ± 1.3
343.15 K	1168.07 ± 7.4	1.46116 ± 0.0011	1665.7 ± 5.1	42 ± 1.1

Details	Normal melting temperature [°C]
[2]	33 ± 2

CC[N+](C)(CC)CC.COS(=O)(=O)[O-] [N,N-diethyl-N-methylethanaminium methyl sulfate]
Details	mass density, [2] [kg/m3]	refractive index, [1]	speed of sound, [2] [m/s]	viscosity, [2] [mPa·s]
308.15 K	1166.44 ± 7.4	1.46191 ± 0.0011	1853.5 ± 5.1	218.5 ± 9.2
313.15 K	1163.4 ± 7.4	1.46065 ± 0.0011	1839.7 ± 5.1	165.6 ± 6.3
318.15 K	1160.36 ± 7.3	1.45939 ± 0.0011	1826.3 ± 5.1	127.7 ± 4.3
323.15 K	1157.34 ± 7.3	1.45812 ± 0.0011	1813.1 ± 5.1	100.3 ± 3.1
328.15 K	1154.32 ± 7.2	1.45687 ± 0.0011	1800 ± 5.1	79.7 ± 2.3
333.15 K	1151.33 ± 7.2	1.45561 ± 0.0011	1787.1 ± 5.1	64 ± 1.7
338.15 K	1148.34 ± 7.2	1.45402 ± 0.0011	1774.2 ± 5.1	53.42 ± 1.4
343.15 K	1145.36 ± 7.1	1.45283 ± 0.0011	1761.5 ± 5.1	44.92 ± 1.2

Details	Normal melting temperature [°C]
[2]	33 ± 2
